Laboratory results taken from patent US9701709B2 (REATA PHARMACEUTICALS, INC., priority 2012, dated 2017).
Like-named read-outs stand apart in the source and are kept apart here.

How the values were obtained:
[1] = tested on: RANKL-induced osteoclastogenesis in RAW264.7; assay: RANKL-induced osteoclastogenesis (TRAP activity) in RAW264.7; format: cell-based; conditions: Mus musculus, 96 h, 50 ng/mL RANKL, four days, read-out: IC50, RANKL-induced TRAP activity and formation of osteoclasts
Description: STAT3 (124H6) and phospho-STAT3 (Tyr705) monoclonal antibodies were from Cell Signaling Technology. Peroxidase-conjugated Affini-pure Goat anti-Rabbit IgG and Peroxidase-conjugated Affini-pure Goat anti-Mouse IgG were from Jackson ImmunoResearch. Osteoclastogenesis is a multi-step differentiation process that results from the binding of RANKL to its receptor, RANK, on cells of hematopoietic origin. […] RAW 264.7 cells were plated in 24-well plates at a density of 5,000 cells/well. […] The treated cells were incubated for four days to allow differentiation into osteoclasts. Differentiation into osteoclasts was assessed by measuring TRAP activity. In brief, 90 μl of conditioned cell culture media was removed from each test well and aliquoted into triplicate wells (30 μL/well) of a 96-well plate. 170 μL of TRAP Assay buffer (Kamiya Biomedical) was then added to each well and the plate was incubated at 37° C. for 3 hours. Following the incubation, absorbance at 540 nm was determined using a Spectramax M2 plate reading spectrophotometer.

[2] = Oral pharmacokinetics in mice; format: in vivo, mouse; conditions: oral suspension, 10 to 100 mg/kg
Description: Measurements were performed on TQD and QToF mass spectrometers (Waters).
Following oral administration of a suspension formulation at doses of 10 to 100 mg/kg, maximal concentrations were observed within 1 to 2 h in mice, and within 1 to 24 h in rats and monkeys.

[3] = tested on: LPS-induced NO (plasma NOx, Griess Reaction); assay: Suppression of NO in vivo after LPS in CD-1 mice; design: species or system mouse; conditions: LPS 5 mg/kg 24 h later
Description: FIG. 51—Dose-dependent suppression of NO in vivo by 63415. CD-1 mice (n=6) were dosed with DMSO or […] by oral gavage. LPS (5 mg/kg) was administered 24 h later. Twenty-four hours after LPS administration, whole blood was collected for NO assay. NO inhibition was determined by Griess Reaction from reduced, de-proteinated plasma.

[4] = tested on: NQO1 and HMOX1 protein in BV2 cells; assay: Western blot of Nrf2 target proteins in BV2; format: cell-based, mouse; conditions: BV2, 24 h
Description: SH-SY5Y cells were plated in 6-well plates at a density of 4×10^5 cells per well. BV-2 cells were plated in 6-well plates at a density of 2.5×10^4 cells per well. […] Following treatment, cells were washed twice with cold PBS and harvested in lysis buffer. Cells were sonicated and debris was cleared by centrifugation (10 min @ 18,000 rcf, Beckman Coulter, microfuge 18 centrifuge). Total protein in supernatant was quantified using Bio-Rad protein reagent with BSA as a standard. Equal amounts of total cellular protein were separated on SDS-PAGE, and proteins were transferred to nitrocellulose membrane. Membranes were blocked for 1 hour in TBST (1×TBS with 0.1% Tween-20) containing 5% milk, washed 3 times with TBST, and incubated with primary antibodies overnight at 4° C. NQO1 antibody was from Abcam (#AB2346); HMOX1 (HO-1) antibody was from Santa Cruz (#sc-10789); actin antibody was from Millipore (#MAB 1501). After washing with TBST, secondary antibodies were added in TBST+5% milk for 1 h at room temperature. AffiniPure goat anti-rabbit or anti-mouse IgG secondary antibodies were from Jackson ImmunoResearch (catalog #111-035-144 and #115-035-146, respectively). Membranes were washed in TBST, developed using ECL, and exposed to X-ray film. […] HMOX1 protein was not detected in untreated or RTA 408-treated SH-SY5Y cells. […] The same amount of 63170 (54.6 nM) was required.

[5] = Topical pharmacokinetics in rats; format: in vivo, rat; conditions: 0.01% to 3% suspension in sesame oil
Description: The topical administration was formulated as a suspension in sesame oil.

[6] = tested on: cynomolgus monkeys; conditions: for ALP / ALT / AST / Albumin / BUN / Chol / Cr / Glucose / TG / Tot Bil / Tot Prot: monkey, Day 14
[7] = Plasma protein binding (ultracentrifugation), rat
[8] = tested on: fractionated radiation dermatitis; assay: Fractionated radiation dermatitis in Balb/c mice; format: in vivo, mouse; conditions: for % Days ≧ 2 (dermatitis score) / % Days ≧ 3 (dermatitis score): 6 × 10 Gy
Description: The mice were irradiated on days 0-2 and 5-7 with six 10-Gy doses […]. Clinical dermatitis scores for the mice were evaluated blindly every two days from day 4 until the end of the study. […] Study and treatment parameters can be found in Table 6.
By analyzing the average clinical scores that were shown in FIG. 46, an area under the curve (AUC) analysis was performed, which yielded the severity of the dermatitis relative to how long the dermatitis persisted.

[9] = tested on: phosphorylation of IκBα in HeLa cells; assay: TNF-α-induced phosphorylation of IκBα in HeLa (Western); format: cell-based, human; conditions: 6 h pretreatment, TNF-α 20 ng/mL 5 min
Description: Total and phosphorylated levels of IκBα were evaluated by Western blot. Primary IκBα antibodies were from Santa-Cruz (sc-371), pIκBα antibody was from Cell Signaling (9246), actin antibody was from Millipore (MAB 1501). Peroxidase-conjugated affini-pure Goat anti-Rabbit (IgG) and peroxidase-conjugated affini-pure Goat anti-Mouse IgG secondary antibodies were purchased from Jackson ImmunoResearch. Protein blots were developed using ECL, and exposed to X-ray film.

Compound: CC1(C)CC[C@]2(NC(=O)C(C)(F)F)CC[C@]3(C)[C@H](C(=O)C=C4[C@@]5(C)C=C(C#N)C(=O)C(C)(C)[C@@H]5CC[C@]43C)[C@@H]2C1 [RTA 408, N-((4aS,6aR,6bS,8aR,12aS,14aR,14bS)-11-cyano-2,2,6a,6b,9,9,12a-heptamethyl-10,14-dioxo-1,2,3,4,4a,5,6,6a,6b,7,8,8a,9,10,12a,14,14a,14b-octadecahydropicen-4a-yl)-2,2-difluoropropanamide]
- IC50 [1]: 5 to 10 nM
- Time of maximal concentrations [2]: 1 to 2 h
- NOx Levels (% vs LPS Controls) ([3]; 13 mg/kg oral gavage): 30%
- NOx Levels (% vs LPS Controls) ([3]; 25 mg/kg oral gavage): 18%
- NOx Levels (% vs LPS Controls) ([3]; 50 mg/kg oral gavage): 16%
- NQO1 and HMOX1 protein levels [4]: increased NQO1 and HMOX1 protein levels at concentrations up to 125 nM
- Plasma concentrations after topical administration [5]: lower plasma concentrations relative to similar oral dosing
- NQO1, Gst, Gsr enzyme activity in monkey liver and lung (and rodent liver) ([6]; 10, 30, and 100 mg/kg, 14 days): dose-dependent increases in NQO1, Gst, and Gsr enzyme activity
- Clinical chemistry ([6]; 14 days): Clinical chemistry data suggested no obvious toxicity
- ALP ([6]; 10 mg/kg): 382 U/L
- ALT ([6]; 10 mg/kg): 46 U/L
- AST ([6]; 10 mg/kg): 38 U/L
- Albumin ([6]; 10 mg/kg): 4 g/dL
- BUN ([6]; 10 mg/kg): 27 mg/dL
- Chol ([6]; 10 mg/kg): 144 mg/dL
- Cr ([6]; 10 mg/kg): 0.68 mg/dL
- Glucose ([6]; 10 mg/kg): 39 mg/dL
- TG ([6]; 10 mg/kg): 82 mg/dL
- Tot Bil ([6]; 10 mg/kg): 0.23 mg/dL
- Tot Prot ([6]; 10 mg/kg): 7.2 g/dL
- ALP ([6]; 30 mg/kg): 416 U/L
- ALT ([6]; 30 mg/kg): 47 U/L
- AST ([6]; 30 mg/kg): 43 U/L
- Albumin ([6]; 30 mg/kg): 4 g/dL
- BUN ([6]; 30 mg/kg): 20 mg/dL
- Chol ([6]; 30 mg/kg): 122 mg/dL
- Cr ([6]; 30 mg/kg): 0.58 mg/dL
- Glucose ([6]; 30 mg/kg): 53 mg/dL
- TG ([6]; 30 mg/kg): 64 mg/dL
- Tot Bil ([6]; 30 mg/kg): 0.2 mg/dL
- Tot Prot ([6]; 30 mg/kg): 7.2 g/dL
- ALP ([6]; 100 mg/kg): 390 U/L
- ALT ([6]; 100 mg/kg): 43 U/L
- AST ([6]; 100 mg/kg): 37 U/L
- Albumin ([6]; 100 mg/kg): 3.2 g/dL
- BUN ([6]; 100 mg/kg): 24 mg/dL
- Chol ([6]; 100 mg/kg): 93 mg/dL
- Cr ([6]; 100 mg/kg): 0.55 mg/dL
- Glucose ([6]; 100 mg/kg): 32 mg/dL
- TG ([6]; 100 mg/kg): 61 mg/dL
- Tot Bil ([6]; 100 mg/kg): 0.18 mg/dL
- Tot Prot ([6]; 100 mg/kg): 6 g/dL
- fraction unbound [7]: 0.05
- Average clinical dermatitis score ([8]; 0.1% to 1% topical formulations): statistically significant improvement in the scores
- % Days ≧ 2 (dermatitis score) ([8]; topical 0.01%): 54%
- % Days ≧ 3 (dermatitis score) ([8]; topical 0.01%): 29%
- % Days ≧ 2 (dermatitis score) ([8]; topical 0.1%): 40%
- % Days ≧ 3 (dermatitis score) ([8]; topical 0.1%): 13%
- % Days ≧ 3 (dermatitis score) ([8]; topical 1%, vehicle 33%): 6%
- % Days ≧ 2 (dermatitis score) ([8]; topical 1%, vehicle 60%): 21%
- TNF-α-induced phosphorylation of IκBα [9]: inhibited TNF-α-induced phosphorylation of IκBα in a dose-dependent manner
